This is an account of results in patent publication US20240050491A1 (priority 2021, published 2024).

Assay [1] concerns Salmonella. Nature of the assay: Decontamination of Salmonella contaminated alfalfa seeds by Ca-hypochlorite. It counts as in vivo, Salmonella enterica serovar Typhimurium. The settings on record: 20,000 ppm. As to the method: FIGS. 18A-B are graphs illustrating the influence of decontamination by Ca-hypochlorite, of Salmonella contaminated alfalfa seeds, on the concentration of Salmonella. The seeds were contaminated with Salmonella by dipping in 10^2-[…] CFU/ml. Decontamination was performed with 20,000 ppm Ca-hypochlorite. The number of Salmonella on the seeds (CFU/g seeds) was detected immediately after the contamination (A), and in the sprouts (B) after 3 days of sprouting (CFU/g sprouts). The results are representing the average and standard error of 3 independent experiments in duplicates. When bacteria were not detected, enrichment of the samples was performed in BPW. (*) Growth after enrichment. (−) No growth.
(§1) Seed sterilization by Ca-hypochlorite: To assess the ability of Ca-hypochlorite to inactivate the Salmonella enterica serovar Typhimurium (STm) strain SL1344 on the seeds, alfalfa seeds were pre-contaminated with increasing concentrations of STm cells. […] After 4 days the alfalfa sprouts were extracted and the STm concentration in the extract was analyzed. Salmonella Typhimurium SL1344 survival in sprouts in the presence or absence of Bacillus BX-77 was analyzed after disinfection by Ca-hypochlorite of alfalfa seeds contaminated by 10^2 or 10^5 CFU of STm. […]

Assay [2] relates to Salmonella Typhimurium SL1344. The assay is described as follows: Salmonella survival in alfalfa sprouts with BX-77 and/or Ca-hypochlorite disinfection. It counts as in vivo.
Source text: FIG. 19 is a graph illustrating Salmonella Typhimurium SL1344 survival in sprouts in the presence of BX-77 or absence of BX-77 after disinfection by Ca-hypochlorite of Salmonella contaminated seeds. Alfalfa seeds were contaminated by 10^2 or 10^5 CFU of Salmonella, dried, decontaminated by Ca-hypochlorite and seeded in the presence or absence of BX-77. Salmonella infected seeds were used as controls in the absence or the presence of BX-77. The experiment was repeated twice and each set included 5 cups.
as §1, with “cells. Breifly, seeds (1 g) 15 were contaminated with the desired number of bacteria by adding 20 μL of STm suspended in SDDW and mixing by a sterile plastic spreader and then the seeds were dried at room-temp for 30 minutes.” for “cells.”

As for `[Ca+2].[O-]Cl.[O-]Cl` [Ca-hypochlorite, calcium hypochlorite], the efficiency of decontamination result in assay [1] (higher Salmonella concentrations, 3 day sprouts) is reported as “not efficient”; in assay [1] (low Salmonella concentrations up to 10^3/ml, seeds and 3 day sprouts), “Salmonella was not detected even after sprouting”. Also, the “killing of Salmonella cells” value in assay [2] (seeds infected by 10^2 CFU of Salmonella) was “killed all the Salmonella cells”. The “reduction of Salmonella growth” value in assay [2] (seeds infected by 10^5 CFU of Salmonella) stood at 2 log CFU/g.
